Assay results published in ChEMBL document CHEMBL1157539, “Thousands of chemical starting points for antimalarial lead identification” (Nature, 2010).

Tested on: Plasmodium falciparum
Assay: GSK_TCMDC: Inhibition of Plasmodium falciparum 3D7 in whole erythrocytes, using parasite LDH activity as an index of growth.
Assay type: functional, organism-based
Details: Plasmodium falciparum, 3D7

Row | Structure (SMILES) | XC50 [nM]
1 | Cc1ccc(C2(CN3CCC(NC(=O)c4n[nH]cc4Cl)CC3)CCCCC2)cc1 | 321
2 | CC1CCN(CCCNc2ccc(C(=O)Nc3ccc(C(F)(F)F)cc3)cc2[N+](=O)[O-])CC1 | 340
3 | O=C(Cc1cccs1)NC(CCCN1CCC(Oc2cccc(Cl)c2)CC1)c1ccc(Cl)c(Cl)c1 (centres undefined) | 247
4 | Cc1cc(O)c(-c2cccc(Oc3ccc(Cl)cc3)c2)c(C)n1 | 736
5 | CC(=O)Nc1sc(C)c(C)c1CN1CCc2ccccc2C1 | 616
6 | c1ccc(Oc2cccc(Nc3ccnc4ccccc34)c2)cc1 | 1110
7 | CC(C)(C)c1ccc(N2C(N)=NC(N)=NC2(C)C)cc1Cl | 6.56
8 | CC(C)(C)c1ccc(/C=C/C(=O)NCCCCCN2CCC(c3c[nH]c4ccccc34)CC2)cc1 | 1090
9 | CN1CCCN(Cc2ccc(-c3ccc(NC(=O)c4cccc(C#N)c4)cc3)cc2)CC1 | 875
10 | CCCCCN1CCCC(NS(=O)(=O)c2ccc(C(=O)Nc3ccc(C(F)(F)F)cc3)cc2)C1 (centres undefined) | 1630
11 | COc1cccc(-c2cnc(N)c(-c3nc4ccc(F)cc4[nH]3)c2)c1 | 850
12 | CC(C)CNCc1ccc(OCc2cccc(COc3ccc(CNCC(C)C)cc3I)c2)c(I)c1 | 772
13 | CCCCc1cc(NCc2ccncc2)nc(Nc2ccccc2)n1 | 843
14 | CS(=O)(=O)Nc1ccc2c(C3CCN(CC4CCN(C(=O)/C=C/c5ccc(Cl)c(Cl)c5)CC4)CC3)c[nH]c2c1 | 761
15 | COC1CCC(C(=O)Nc2ccc(-c3cccc(-c4nc5cccc(C)c5[nH]4)c3)cc2)CC1 (centres undefined) | 585
16 | CCOc1ccccc1NC(=O)C(Sc1nc(C)cc(C)c1C#N)c1ccccc1 (centres undefined) | 373
17 | COc1ccccc1C(=O)Nc1cccc(N2CCC(NCc3ccc(-n4cccn4)cc3)CC2)c1 | 1190
18 | N=C(N)NCCCN(Cc1ccccc1)c1ccc(Cl)cc1 | 564
19 | Cc1ccccc1C1=CCN(CCCN2c3ccccc3Sc3ccc(Cl)cc32)CC1 | 871
20 | COc1cc(Cc2cnc(N)nc2N)ccc1OCc1cccc(Oc2ccccc2)c1 | 1330
21 | COc1ccc2nccc([C@@H](O)CN3CCC(NC(=O)c4ccc(Oc5ccccc5)cc4)CC3)c2c1 | 1380
22 | O=[N+]([O-])c1cccc(CNCC2CCN(CC3CCCCC3)CC2)c1 | 1290
23 | Cc1cc(NC(=O)c2ccc(S(=O)(=O)N(Cc3ccccc3)C(C)C)cc2)no1 | 847

Row | Structure (SMILES) | XC50 [nM]
24 | Cn1c(=N)n(CC(=O)N2CCc3ccc(Cl)cc3C2Cc2ccc(Cl)c(Cl)c2)c2ccccc21 (centres undefined) | 869
25 | COc1ccc(CCN(C)CCCOc2ccc(NC(=O)COc3cccc4sc5ccccc5c(=O)c34)cc2)cc1OC | 459
26 | Cc1[nH]c2c(NCc3ccc(F)cc3)nccc2c1C | 1360
27 | CN1CCN(c2cc3c(cc2Cl)CCN3C(=O)Cc2ccc(NC(=O)Nc3cccc4ccccc34)cc2)CC1 | 973
28 | CCN(CC)c1ccc(C=CC(=O)NCCN2CCC(N(C)C3CCCCC3C)CC2)cc1 (centres undefined) | 965
29 | FC(F)(F)Oc1ccc(-c2cnc3ccc(NCc4ccncc4)nn23)cc1 | 866
30 | C[C@@H](NC(=O)NC(CCN1CCC2(CC1)CN(S(C)(=O)=O)c1ccccc12)c1ccc(Cl)c(Cl)c1)c1ccccc1 (some centres undefined) | 903
31 | CCOc1cc(NCCCNc2ncc([N+](=O)[O-])cc2C)nc2ccccc12 | 692
32 | CCCNCc1ccc(-c2ccc(CN(CCOC)C(=O)/C=C/c3ccccc3C)cc2)nc1 | 903
33 | CCCO[C@H](C(=O)OC)[C@@H](CC1Cc2ccccc2C1)C(=O)NCCC1=CCCCC1 | 970
34 | CCn1cc2c3c(cc(C(=O)N[C@@H](Cc4ccccc4)[C@H](O)CNCc4cccc(OC)c4)cc31)N(C)S(=O)(=O)CC2 | 667
35 | O=C(Nc1ccc(OC2CCN(Cc3ccc(F)cc3)CC2)c(Cl)c1)c1ccc(F)cc1 | 188
36 | CN(c1cc(NC(=O)c2ccc(F)cc2)ccn1)C1CCN(Cc2cccc(F)c2)CC1 | 495
37 | Cn1c(NC2CCN(CC3CCN(C(=O)/C=C/c4ccc(Cl)c(Cl)c4)CC3)CC2)nc2ccccc21 | 148
38 | CCN(CC)CCN(Cc1ccc(-c2ccc(C(F)(F)F)cc2)cc1)C(=O)Cn1c(CCc2cc(F)cc(F)c2)nc(=O)c2ccccc21 | 983
39 | CCC1CN2CCc3c([nH]c4ccc(OC)cc34)C2CC1CC1NCCc2cc(OC)c(OC)cc21 (centres undefined) | 862
40 | CC(=O)OC[C@H]1O[C@@H](C#Cc2ccccc2)[C@H](OC(C)=O)[C@@H](OC(C)=O)[C@@H]1OC(C)=O | 283
41 | CCOC(=O)N1CCN(CCCNc2c3ccc(Cl)cc3nc3ccc(OC)cc23)CC1 | 104
42 | CN(C)Cc1ccc(-c2cccc(NC(=O)c3ccc(Cl)cc3)c2)cc1 | 900
43 | Cc1nc(-c2ccc3c(c2)CCN(CCC2CCC(NC(=O)c4cc5cccc(Cl)c5[nH]4)CC2)CC3)no1 (centres undefined) | 633
44 | CCCc1cc(N2CCC(c3ccccc3)(N3CCCCC3)CC2)nc(Nc2ccc(OC)cc2)n1 | 1090
45 | CC1(C)N=C(N)N=C(NOCc2ccc(Cl)c(Cl)c2)N1 | 228
46 | O=C(N[C@@H](CC1CCCCC1)C(=O)NCc1cccc(C(F)(F)F)c1)c1ccc(O)c(-c2ccc(Cl)c(Cl)c2)c1 | 224

Row | Structure (SMILES) | XC50 [nM]
47 | Cc1ccc(C(=O)c2oc3ccc4c(C)cc(=O)oc4c3c2C)cc1 | 1030
48 | CC(C)Oc1ccc(C=CC(=O)Nc2noc3ccccc23)cc1 | 288
49 | Cc1ccccc1OCC(O)CNC1CCC(NCC(O)COc2ccccc2C)CC1 (centres undefined) | 1190
50 | CCCCC(=O)Nc1nc2ccc([N+](=O)[O-])cc2s1 | 756
51 | O=C(Nc1ccc(Cl)c(C(F)(F)F)c1)NC1CCN(CCCCCNC(=O)C2CC2c2ccc(Cl)c(Cl)c2)CC1 (centres undefined) | 683
52 | CC(=O)Nc1ccc(OCCN(CC(C)(C)C)c2ccc(C#N)c(C(F)(F)F)c2)c(Cl)c1 | 493
53 | Cc1cc(O)c(CN(C)Cc2ccc3c(c2)OCCO3)cc1C(C)C | 672
54 | COc1nc2c(CCN3CC[C@H](NCc4cc(C#N)c5c(c4)OCCO5)[C@H](O)C3)ccnc2cc1F | 783
55 | Cc1ccc(Cn2c(N3CCC(C(=O)NCc4ccccn4)CC3)nc3ccccc32)cc1 | 408
56 | CN1CCC(Oc2ccc(NC(=O)c3ccc4c(=O)n(Cc5ccccc5)cnc4c3)cc2Cl)CC1 | 954
57 | O=C(/C=C/c1ccc(C(F)(F)F)cc1)N1CCC(CCN2CCC(c3c[nH]c4ccccc34)CC2)CC1 | 716
58 | CC1CCC(C[C@@H](C(=O)N[C@@H](CCC(=O)N2CCCCC2)C(=O)Nc2nccs2)[C@H](C(C)C)N(O)C=O)CC1 (some centres undefined) | 615
59 | CC(C)c1cc(Oc2c(I)cc(CCNCc3ccccc3)cc2I)ccc1O | 536
60 | CC(C)C[C@H](NC(=O)c1ccc(OCCN2CCOCC2)cc1)C(=O)N[C@H](/C=N/N1CCN(C)C1=O)CCc1ccccc1 | 294
61 | O=C(Nc1cccc(Cl)c1)N(CCCn1ccnc1)Cc1csc(-c2ccc(CNCc3ccccc3)cc2)n1 | 538
62 | Cc1cc(NCCC(=O)Nc2ccccc2)nc(NCCc2ccccc2)n1 | 852
63 | COc1ccc(CN2CCCC(Nc3ccc(F)c(F)c3)C2)c(O)c1 (centres undefined) | 1090
64 | C[C@H](NC(=O)C1CCCC1)C(=O)Nc1ccc(-c2ccc(-c3nc4cc(C(F)(F)F)ccc4[nH]3)cc2)cc1 | 272
65 | O=C(N[C@@H](Cc1ccccc1)[C@H](O)CNC1CCc2ccccc2C1)c1cc(C2CCCC2)cc(N2CCCC2=O)c1 (some centres undefined) | 161
66 | COC(=O)c1ccc(-c2ccc(-c3cccnc3)cc2C)cc1 | 662
67 | O=C(NCCc1ccccc1)[C@H](Cc1ccccc1)Nc1ccnc(NCC2CCCCC2)n1 | 1380
68 | Cc1sc2nc(CSc3ccccc3)nc(N3CCN(CC(=O)N4CCCC4)CC3)c2c1C | 1260
69 | CCCCCOc1c(CCC)cc(Cc2cnc(N)nc2N)cc1CCC | 898
